Patent US8268961B2, “Antibacterial peptides and analogues thereof” (Universita Degli Studi di Siena, priority 2004, dated 2012)
≈ marks a conversion by molar mass, not a printed value. Read-outs that look alike come from different tables or passages of the source. Positions of bridges follow the written chain, without caps; N, C: chain ends. Residues, ends and D or L forms follow the SMILES beside them. Chains are numbered I, II in the order given. No end group written: not given here.

Columns and labels:
[1] = test system: human keratinocytes HaCaT; assay: Cytotoxicity test by MTT; assay type: cell-based; conditions: up to 1 mg/ml
Method: (§1) For cytotoxicity tests, different cell lines were used: murine myeloma cells SPO, hamster ovary epithelium cells CHO K 1, murine macrophage cells J774 A.1 and human keratinocytes HaCaT. The cells were plated in medium in RPMI 1640 (SPO and CHO K 1) and DMEM (J774 A.1 and HaCaT) with antibiotics and bovine foetal serum at 10%, in 96-well plates at the concentration of 6×10^4 (SPO, CHO K1 and J774 A.1) and 3×10^4 (HaCaT). Peptides, previously filtered with a 0.2 μm filter disk (Whatman), were added at various concentrations to the different cell lines and left in incubation over night at 37° C. Cell viability was determined adding the MTT tetrazolium salt at the concentration of 0.5 mg/ml and incubating for 90 min. The cells were solubilised with a solution at pH 4.5 containing SDS 10% and dimethylformamide 45% and read at the dual wavelength of 595/650 nm with a plate reader.

[2] = test system: murine macrophage cells J774 A.1; assay: Cytotoxicity test by MTT; assay type: cell-based, mouse
Method: (§2) The cytotoxicity of antibacterial MAP peptides was evaluated on different eukaryotic cell lines by a colorimetric assay (MTT). This assay measures the cells' ability to convert a soluble tetrazolium salt into an insoluble precipitate: formazan. The cytotoxicity of M1 was evaluated on murine macrophagic cells (J774 A.1), murine myeloma cells (SPO) and Chinese hamster ovary epithelium cells (CHO K1). As shown FIG. 4, even at high concentrations (1 mg/ml) M1 cytotoxicity on CHO K1 cells and on SPO cells is low (percent survival is 80-90%).
as §1

[3] = test system: Staphylococus aureus MIU-68A; assay type: cell-based, Staphylococcus aureus; conditions: Staphylococus aureus MIU-68A, meticillin-susceptible
Description: (§3) MIC is defined as the lowest concentration, in an antibiotic dilution range, that inhibits visible bacterial growth. The importance of MIC sensitivity test is based on the principle that in vitro sensitivity provides a predictive indication of the in vivo efficacy of the antibiotic therapy. Values are expressed as molar concentration and compared to MIC values obtained with commercially available antibiotics such as amikacin, ceftriaxone and levofloxacin (Table 3).
(§4) Reference strains (Escherichia coli ATCC 25922, Pseudomonas aeruginosa ATCC 27853, Staphylococus aureus ATCC 25923 and Chryseobacterium meningosepticum CCUG 4310) and several recent clinical isolates (including multidrug-resistant ones) of various species (Table 2) were used for conventional susceptibility testing experiments. Minimum Inhibitory Concentration (MIC) was determined by a standard microdilution assay as recommended by the National Commitee for Clinical Laboratory Standards (NCCLS) using cation-supplemented Mueller-Hinton (MH) broth (Oxoid Ltd. Basingstoke, UK) and a bacterial inoculum of 5×10^4 CFU per well, in a final volume of 100 μl. Results were recorded by visual inspection after 24 h of incubation at 37° C.

[4] = test system: human erythrocytes; assay: Haemolysis, Parpart erythrocyte osmotic resistance assay; assay type: cell-based; conditions: 19 hours incubation, 125 μg/ml
Method: The haemolytic activity of M5 and M6 was also evaluated and is represented FIG. 9. Haemolysis of fresh human erythrocytes was determined at peptide concentrations ranging from 1 to 125 μg/ml. […] By contrast, after 19 hours of incubation, the haemolysis induced by M6 and M5 at 125 μg/ml is 7% and 19%, respectively. The percentage of haemolysis of untreated blood after 19 hours (control) is very limited (<1%).
The haemolytic activity of the KIRVRLSA [SEQ ID NO: 3] (M5) and […] [SEQ ID NO: 4] (M6) peptides was evaluated by the Parpart erythrocyte osmotic resistance assay in NaCl. The percentage of haemolysis was calculated by means of a calibration curve obtained incubating the erythrocytes with increasing concentrations of NaCl and measuring the absorbance increase, due to haemolysis, at 540 nm. 0.9% NaCl solutions containing the MAP peptides at different concentrations were then prepared, whereto was added human blood in the ratio of 1:100 (v/v). The samples were left at ambient temperature for 30 min and 19 hours; subsequently, a portion was drawn for each incubation, centrifuged at 1500 rpm for 5 min and the absorbance of the super was measured with the spectrophotometer at 540 nm.

[5] = test system: E. coli ATCC 25922; assay: Minimal bactericidal concentration (MBC); assay type: cell-based
Method: as §4
(§5) The MBC was determined as recommended by the National Committee for Clinical Laboratory Standards (NCCLS) on strains of E. coli ATCC 25922 and P. aeruginosa ATCC 27853.

[6] = test system: P. aeruginosa ATCC 27853; assay: Minimal bactericidal concentration (MBC); assay type: cell-based
Method: as §4, §5

[7] = test system: Escherichia coli W99FI0077; assay type: cell-based; conditions: Escherichia coli W99FI0077, FQR ESCR (ESBL/SHV type)
Description: as §3, §4

[8] = test system: Pseudomonas aeruginosa 885149; assay type: cell-based; conditions: Pseudomonas aeruginosa 885149, FQR AGR ESCR CPR (MBL/IMP-13)
Description: as §3, §4

[9] = test system: Klebsiella pneumoniae W99FI0057; assay type: cell-based; conditions: Klebsiella pneumoniae W99FI0057, ESCR (ESBL/SHV type)
Description: as §3, §4

[10] = test system: Pseudomonas aeruginosa ATCC27853; assay type: cell-based; conditions: Pseudomonas aeruginosa ATCC27853, reference strain
Description: as §3, §4

[11] = test system: Pseudomonas aeruginosa 891; assay type: cell-based; conditions: Pseudomonas aeruginosa 891, FQR AGR ESCR CPR (MBL/VIM-2)
Description: as §3, §4

[12] = test system: Escherichia coli ATCC 25922; assay type: cell-based; conditions: Escherichia coli ATCC 25922, reference strain
Description: as §3, §4

[13] = test system: Staphylococcus aureus ATCC 25923; assay type: cell-based; conditions: Staphylococcus aureus ATCC 25923, reference strain
Description: as §3, §4

[14] = test system: Pichia pastoris yeast strain X33; assay: Effect on Pichia pastoris yeast colonies; assay type: cell-based; conditions: Pichia pastoris X33, data not shown
Method: To a volume of 50 μl of culture of Pichia pastoris grown 24 hour at 30° C. in YPD (Yeast Extract/Peptone/Dextrose) medium, 50 μl of MAP peptides (2 mg/ml) were added and left in incubation 150 min at 37° C. Subsequently, 50 μl of each incubation were plated on YPD solid medium and it was allowed to grow for 48 hours at 30° C. The number of colonies grown was compared with a control, where the yeast was not treated with the MAP.

[15] = test system: E. coli strain TG1; assay: Test of antibacterial activity (colony growth inhibition) on E. coli strain TG1; assay type: cell-based; conditions: for Antibacterial activity on E. coli TG1 colony growth: E. coli TG1, colony counting vs control without peptide
Method: The antimicrobic activity of the peptides in linear form (L1, L4, L5, L6) and in MAP form (M1, M4, M5, M6) was assayed on the TG1 strain of E. coli. The peptides were incubated at various concentrations (2-1-0.5-0.25-0.12 mg/ml) with cells of E. coli (OD600=0.2) for about 1 hour at 37° C. Subsequently, the cells were plated on agar at dilution such to allow counting of individual colonies. The antimicrobic activity of the synthesised peptide L 1 and M1 is shown FIG. 1 and is compared to a non correlated MAP peptide (MNC) used as negative control.
In one example, the tetrabranched MAP peptides with the amino acid sequence: QAKIRVRLSA [SEQ ID NO: 2], KIRVRLSA [SEQ ID NO: 3], QKKIRVRLSA [SEQ ID NO: 4] are used individually in a bacterial colony growth inhibition test. The test is conducted by incubating different concentrations of MAP peptides with E. coli (strain TG1) and plating bacterial cells on agar at a dilution such to allow for individual colonies counting. The following day, the number of colonies grown after treatment with the three MAP peptides is compared.
Antimicrobic tests were conducted incubating for 75 min at 37° C., 25 μL of E. coli at the OD600 of 0.2 with 25 μl of MAP peptide dissolved in PBS at the various concentrations. The different incubations were further diluted 1:1000 in 2×TY medium and 100 μl were plated on solid 2×TY medium. The plates were left overnight at 30° C. and the individual grown colonies were counted and compared with a control, not treated with MAP peptide.

[16] = Stability to plasmatic protease (HPLC); assay type: in vitro ADME, human
Method: Since the use of peptides as therapeutic agents is severely limited by their in vivo half-life, the stability to human serum protease of the linear peptide L1 and of the MAP peptides M1, M4, M5 and M6 was evaluated. The peptides were incubated at the concentration of 10 mM with plasma and with human serum for 2 and 24 hours; the samples were subsequently analysed in HPLC on column C18 (see materials and methods) to evaluate the presence of linear and MAP peptide not digested by the protease.
The various peptides in MAP form and the linear peptide (L1) were dissolved in H2O at the concentration of 10 mM and incubated with 10 μl of plasma and human serum for 2 and 24 hours at 37° C. To each sample were added 150 μl of methanol to block the proteolytic reaction; each sample was then centrifuged at 13,000 rpm for 2 min and to the supernatant were added 0.75 ml of 0.1% trifluoroacetic acid. The samples were analysed in reverse phase HPLC on a Vydac C18 semi-preparative column using a 30 min gradient of buffer B from 20% to 95% (buffer A: 0.1% trifluoroacetic acid/water; buffer B: 0.1% trifluoroacetic acid/methanol), to evaluate the presence of linear and MAP peptide after the proteolytic treatment.

[17] = in vitro; assay type: cell-based
Method: as §2
as §1, with “Peptides, previously filtered with a 0.2 μm filter disk (Whatman), were added at various concentrations to the different cell lines and left in incubation over night at 37° C.” left out

[18] = Cytotoxicity test by MTT; assay type: cell-based, mouse; conditions: mouse, J774 A.1 murine macrophage cells
Method: as §2, §1

[19] = test system: E. coli strain TG1; assay: Stability of peptide in solution (time course of antibacterial activity); assay type: physicochemical; conditions: PBS 0.5 mg/ml, 1, 48 and 72 hours
Method: FIG. 6. Stability of M1 peptide in solution. Time course of antibacterial activity of M1 on E. coli strain TG1. MAP M1 peptide was dissolved in PBS at a concentration of 0.5 mg/ml and bactericide activity was measured 1, 48 and 72 hours after re-suspension in PBS.
FIG. 8. Stability of M4, M5 and M6 peptides in solution. Time course of antibacterial activity of M4, M5 and M6 on E. coli strain TG1. M4, M5 and M6 peptides were dissolved in PBS at a concentration of 0.5 mg/ml and bactericide activity was measured 1, 48 and 144 hours after re-suspension in PBS.

## CC[C@H](C)[C@H](NC(=O)[C@@H](N)CCCCN)C(=O)N[C@@H](CCCNC(=N)N)C(=O)N[C@H](C(=O)N[C@@H](CCCNC(=N)N)C(=O)N[C@@H](CC(C)C)C(=O)N[C@@H](CO)C(=O)N[C@@H](C)C(=O)NCCCC[C@H](NC(=O)[C@H](C)NC(=O)[C@H](CO)NC(=O)[C@H](CC(C)C)NC(=O)[C@H](CCCNC(=N)N)NC(=O)[C@@H](NC(=O)[C@H](CCCNC(=N)N)NC(=O)[C@@H](NC(=O)[C@@H](N)CCCCN)[C@@H](C)CC)C(C)C)C(=O)NCCCC[C@H](NC(=O)[C@H](CCCCNC(=O)[C@H](C)NC(=O)[C@H](CO)NC(=O)[C@H](CC(C)C)NC(=O)[C@H](CCCNC(=N)N)NC(=O)[C@@H](NC(=O)[C@H](CCCNC(=N)N)NC(=O)[C@@H](NC(=O)[C@@H](N)CCCCN)[C@@H](C)CC)C(C)C)NC(=O)[C@H](C)NC(=O)[C@H](CO)NC(=O)[C@H](CC(C)C)NC(=O)[C@H](CCCNC(=N)N)NC(=O)[C@@H](NC(=O)[C@H](CCCNC(=N)N)NC(=O)[C@@H](NC(=O)[C@@H](N)CCCCN)[C@@H](C)CC)C(C)C)C(=O)N[C@@H](C)C(=O)O)C(C)C [M5, KIRVRLSA] (I: H-KIRVRLSAKKA-OH / II: H-KIRVRLSAK / III: H-KIRVRLSA / IV: H-KIRVRLSA; amide I:9-IV:C, I:10-II:C, II:9-III:C; N-terminus assumed)
[1]
  Toxicity for human keratinocyte HaCaT cells (MTT): low toxicity
[1]; listed as KIRVRLSA
  Toxicity for human keratinocyte HaCaT cells (MTT): particularly resistant
[2]; J774.A1, overnight, 30 μg/ml
  Effect on cell viability (MTT): did not substantially affect cell viability
[2]; J774 A.1
  Vitality of J774 A.1 cells as the concentration of MAP peptides increases (MTT): decreases
[3]
  MIC (Molarity): 31 µM (≈ 129 µg/mL)
[4]
  haemolysis of human erythrocytes: 19%
[5]
  MBC (minimal concentration able to kill 99.9% of the inoculum) compared with MIC: equal to the calculated values of MIC
[5]; listed as KIRVRLSA
  MBC (minimal concentration able to kill 99.9% of the inoculum) compared with MIC: equal to the corresponding MIC values
[6]
  MBC (minimal concentration able to kill 99.9% of the inoculum) compared with MIC: equal to the calculated values of MIC
[6]; listed as KIRVRLSA
  MBC (minimal concentration able to kill 99.9% of the inoculum) compared with MIC: equal to the corresponding MIC values
[7]
  MIC (Molarity): 31 µM (≈ 129 µg/mL)
[8]
  MIC (Molarity): 7.6 µM (≈ 31.7 µg/mL)
[9]
  MIC (Molarity): >31 µM
[10]
  MIC (Molarity): 3.8 µM (≈ 15.8 µg/mL)
[11]
  MIC (Molarity): 3.8 µM (≈ 15.8 µg/mL)
[12]
  MIC (Molarity): 3.8 µM (≈ 15.8 µg/mL)
[13]
  MIC (Molarity): 3.1e-05 M (≈ 129 µg/mL)
[13]; listed as KIRVRLSA
  MIC (Molarity): ~10^−5 M
[14]
  Number of yeast colonies vs negative control: did not differ from the negative control
[15]
  Antibacterial activity on E. coli TG1 colony growth: good antibacterial activity

## I: QEKIRVRLSAKKA-OH / II: QEKIRVRLSAK / III: QEKIRVRLSA / IV: QEKIRVRLSA (amide I:11-IV:C, I:12-II:C, II:11-III:C) [M1]
[16]
  Resistance to plasmatic protease: Plasma 2 h: +
[17]; CHO K1 cells (Chinese hamster ovary epithelium)
  viability at 1000 µg/mL: 80 to 90%
[17]; mouse, SPO murine myeloma cells
  viability at 1000 µg/mL: 80 to 90%
[18]
  viability at 1000 µg/mL: ~50%
[19]
  Stability in solution: antibacterial activity over time after resuspension: drop in activity over time
[15]; E. coli TG1, MAP form
  Concentration down to which TG1 E. coli colony growth is prevented: less effective
[15]
  Antibacterial activity on E. coli TG1 colony growth: inhibited significantly
